Reference: PubChem BioAssay AID2060496 (Molecular Pharmacology Branch, DTP, NCI, 2025)

Tested on: 276233-004-R-J1-PDC complex spheroid viability
Assay: Anticancer human tumor 276233-004-R-J1-PDC patient-derived colon adenocarcinoma cell line growth inhibition [GQUAD]
Conditions: for IC50: curve of first compound; for viability, T/C: stronger effect = lower value
Method in brief: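 Viability of tumor cells grown as complex spheroids with endothelial and stromal cells, exposed to drug combinations. Top concentration at or near clinical Cmax (else 10 microM), diluted in half-log increments.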

[1] = second compound 0.0316 µM, first compound 0.0316 µM
[2] = second compound 0.0316 µM, first compound 0.1 µM
[3] = second compound 0.0316 µM, first compound 0.316 µM
[4] = second compound 0.0316 µM, first compound 1 µM
[5] = second compound 0.0316 µM, first compound 3.16 µM
[6] = second compound 0.0316 µM, first compound 10 µM
[7] = second compound 0.1 µM, first compound 0.0316 µM
[8] = second compound 0.1 µM, first compound 0.1 µM
[9] = second compound 0.1 µM, first compound 0.316 µM
[10] = second compound 0.1 µM, first compound 1 µM
[11] = second compound 0.1 µM, first compound 3.16 µM
[12] = second compound 0.1 µM, first compound 10 µM
[13] = second compound 0.316 µM, first compound 0.0316 µM
[14] = second compound 0.316 µM, first compound 0.1 µM
[15] = second compound 0.316 µM, first compound 0.316 µM
[16] = second compound 0.316 µM, first compound 1 µM
[17] = second compound 0.316 µM, first compound 3.16 µM
[18] = second compound 0.316 µM, first compound 10 µM
[19] = second compound 1 µM, first compound 0.0316 µM
[20] = second compound 1 µM, first compound 0.1 µM
[21] = second compound 1 µM, first compound 0.316 µM
[22] = second compound 1 µM, first compound 1 µM
[23] = second compound 1 µM, first compound 3.16 µM
[24] = second compound 1 µM, first compound 10 µM
[25] = second compound 3.16 µM, first compound 0.0316 µM
[26] = second compound 3.16 µM, first compound 0.1 µM
[27] = second compound 3.16 µM, first compound 0.316 µM
[28] = second compound 3.16 µM, first compound 1 µM
[29] = second compound 3.16 µM, first compound 3.16 µM
[30] = second compound 3.16 µM, first compound 10 µM
[31] = second compound 10 µM, first compound 0.0316 µM
[32] = second compound 10 µM, first compound 0.1 µM
[33] = second compound 10 µM, first compound 0.316 µM
[34] = second compound 10 µM, first compound 1 µM
[35] = second compound 10 µM, first compound 3.16 µM
[36] = second compound 10 µM, first compound 10 µM
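Further: spheroids exposed to drugs for seven days.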
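Wherever viability, T/C is given: 100% = DMSO vehicle control viability.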

Which results are given for `COc1ccc([C@@H](O)c2cc(-c3ncnc4cc(N5CCOCC5)ccc34)c(F)cc2Cl)nn1` + Cc1[nH]c2ccc(F)cc2c1-c1nc2c3cccnc3c3ncccc3c2[nH]1?
IC50 (second compound 0.0316 µM): > 10 µM; IC50 (second compound 0.1 µM): > 10 µM; IC50 (second compound 0.316 µM): > 10 µM; IC50 (second compound 1 µM): 5.02 µM; IC50 (second compound 3.16 µM): 0.424 µM; IC50 (second compound 10 µM): 0.352 µM; viability, T/C [1]: 89.6%; viability, T/C [2]: 77.9%; viability, T/C [3]: 97.2%; viability, T/C [4]: 72.6%; viability, T/C [5]: 72.6%; viability, T/C [6]: 68.7%; viability, T/C [7]: 88.3%; viability, T/C [8]: 79.6%; viability, T/C [9]: 70.5%; viability, T/C [10]: 74%; viability, T/C [11]: 72.7%; viability, T/C [12]: 65.7%; viability, T/C [13]: 87.8%; viability, T/C [14]: 79.4%; viability, T/C [15]: 96%; viability, T/C [16]: 80.9%; viability, T/C [17]: 70.9%; viability, T/C [18]: 61.2%; viability, T/C [19]: 61.1%; viability, T/C [20]: 70.1%; viability, T/C [21]: 67%; viability, T/C [22]: 62.2%; viability, T/C [23]: 50.4%; viability, T/C [24]: 44.5%; viability, T/C [25]: 59%; viability, T/C [26]: 51.7%; viability, T/C [27]: 51.1%; viability, T/C [28]: 49.1%; viability, T/C [29]: 33.3%; viability, T/C [30]: 24.1%; viability, T/C [31]: 53.4%; viability, T/C [32]: 48%; viability, T/C [33]: 53%; viability, T/C [34]: 41.5%; viability, T/C [35]: 29%; viability, T/C [36]: 25.6%

For `Cc1cccc(N(C)C(=O)C2C(O)CCN2c2nc(C)cc(C(F)(F)F)c2C#N)c1` (centres undefined) + Cc1[nH]c2ccc(F)cc2c1-c1nc2c3cccnc3c3ncccc3c2[nH]1, which IC50 (second compound 0.0316 µM) is on record?
The IC50 was greater than 10 µM.

What about the IC50 (second compound 0.1 µM) of the same molecule?
Its IC50 is greater than 10 µM.

What about the IC50 (second compound 0.316 µM) of the same molecule?
Its IC50 is greater than 10 µM.

What about the IC50 (second compound 1 µM) of the same molecule?
The IC50 was greater than 10 µM.

And the IC50 (second compound 3.16 µM)?
The IC50 was greater than 10 µM.

And the IC50 (second compound 10 µM)?
The IC50 was greater than 10 µM.

And the viability, T/C [1]?
The viability, T/C was 110%.

What about the viability, T/C [2] of the same molecule?
The viability, T/C was 83.8%.

What about the viability, T/C [3] of the same molecule?
Its viability, T/C is 87.2%.

And the viability, T/C [4]?
The viability, T/C was 87.4%.

And the viability, T/C [5]?
The viability, T/C was 117%.

What about the viability, T/C [6] of the same molecule?
The viability, T/C was 114%.

And the viability, T/C [7]?
Its viability, T/C is 88.2%.

What about the viability, T/C [8] of the same molecule?
The viability, T/C was 95.6%.

And the viability, T/C [9]?
Its viability, T/C is 86.4%.

What about the viability, T/C [10] of the same molecule?
The viability, T/C was 95.3%.

What about the viability, T/C [11] of the same molecule?
The viability, T/C was 96.6%.

And the viability, T/C [12]?
Its viability, T/C is 97.8%.

What about the viability, T/C [13] of the same molecule?
Its viability, T/C is 74.6%.

What about the viability, T/C [14] of the same molecule?
Its viability, T/C is 78%.

What about the viability, T/C [15] of the same molecule?
Its viability, T/C is 103%.

What about the viability, T/C [16] of the same molecule?
Its viability, T/C is 97.8%.

What about the viability, T/C [17] of the same molecule?
The viability, T/C was 96%.

And the viability, T/C [18]?
The viability, T/C was 96.8%.

And the viability, T/C [19]?
The viability, T/C was 77.4%.

What about the viability, T/C [20] of the same molecule?
The viability, T/C was 85.2%.

And the viability, T/C [21]?
Its viability, T/C is 71.6%.

And the viability, T/C [22]?
Its viability, T/C is 79.2%.

What about the viability, T/C [23] of the same molecule?
Its viability, T/C is 90.5%.

And the viability, T/C [24]?
The viability, T/C was 85.2%.

And the viability, T/C [25]?
Its viability, T/C is 60.5%.

And the viability, T/C [26]?
Its viability, T/C is 56.8%.

And the viability, T/C [27]?
The viability, T/C was 61.6%.

What about the viability, T/C [28] of the same molecule?
Its viability, T/C is 59.6%.

What about the viability, T/C [29] of the same molecule?
Its viability, T/C is 59.8%.

And the viability, T/C [30]?
The viability, T/C was 62.6%.

And the viability, T/C [31]?
The viability, T/C was 53.7%.

What about the viability, T/C [32] of the same molecule?
Its viability, T/C is 58.4%.

What about the viability, T/C [33] of the same molecule?
The viability, T/C was 58.6%.

What about the viability, T/C [34] of the same molecule?
The viability, T/C was 52.1%.

And the viability, T/C [35]?
Its viability, T/C is 58%.

What about the viability, T/C [36] of the same molecule?
Its viability, T/C is 64.7%.
